Assays:
C57BF6/N male mice [1] = experiment: Neuropathic pain model (chronic constriction injury), Von Frey test; format: in vivo
[2] = Solubility in dosing vehicle; format: physicochemical; settings: Tween 80 (0.5%) or Kolliphor EL (10%)
hNPFFR2 = target: T1, hNPFFR2 (Homo sapiens, UniProt Q9Y5X5); experiment: Radioligand binding competition, membranes from CHO cells expressing hNPFFR2; settings: 0.015 nM [D-Tyr1[125I], N-MePhe3]-NPFF, 1 hr at 25° C., read-out: NPFF2-R Ki
T1 construct: expressed in transfected cells; membranes
Procedure, shortened: (§1)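 CHO membranes (5–10 μg protein) stably expressing hNPFFR1 or hNPFFR2 incubated 1 h at 25 °C with 0.015 nM [D-Tyr1[125I], N-MePhe3]-NPFF in HEPES pH 7.4 with Ca2+, Mg2+, 0.1% BSA. Non-specific binding defined with 10 μM RFRP-3; bound radioactivity counted after GF/B filtration.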

hNPFFR1 = target: T2, hNPFFR1 (Homo sapiens, UniProt Q9GZQ6); experiment: Radioligand binding competition, membranes from CHO cells expressing hNPFFR1; settings: 0.015 nM [D-Tyr1[125I], N-MePhe3]-NPFF, 1 hr at 25° C., read-out: NPFF1-R Ki
T2 construct: expressed in transfected cells; membranes
Procedure, shortened: as §1

C57BF6/N male mice [3] = experiment: Fentanyl-induced hyperalgesia, tail immersion test; format: in vivo; settings: for Hyperalgesia index (HI) d1 to d4: 1j 5 mg/kg p.o. or vehicle 35 min before fentanyl 4×60 μg/kg s.c.
C57BF6/N male mice [4] = experiment: Incisional pain model, Von Frey test; format: in vivo
hNPFF1R = target: T3, hNPFF1R (Homo sapiens, UniProt Q9GZQ6); experiment: Glo Sensor cAMP assay in HEK-293 expressing hNPFF1R; format: cell-based
T3 construct: expressed in transfected cells
Experimental: The functional characterization of the selected compounds was performed by Glo Sensor cAMP kinetic assay, a validated approach for measuring Gαi/s activation by GPCRs (DiRaddo et al., 2014; Gilissen et al., 2015). HEK-Glo cells expressing either NPFF1 or NPFF2 receptors were suspended (10^6 cells per mF) in physiological Hepes buffer (10 mM HEPES, 0.4 mM NaH2PO4, 137.5 mM NaCl, 1.25 mM MgCl2, 1.25 mM CaCl2, 6 mM KCl, 10 mM glucose and 1 mg/mF bovine serum albumin, pH 7.4) supplemented with 1 mM D-Fuciferine. After equilibration for 2 h at 25° C., luminescence levels were recorded in real time in 96-well plates using a Flexstation^R 3 (Molecular Devices, Sunnyvale Calif., USA). Non-specific effect of the different compounds was evaluated in HEK-Glo cells without any recombinant human RF-amide receptors. To test the agonist activity on NPFF1R and NPFF2R, compounds were injected 15 minutes before addition of forskolin (0.5 μM) and readings were pursued for 90 minutes. To evaluate their antagonist properties, compounds were pre-incubated with cells for 15 minutes before prototypical agonists for NPFF1R (RFRP-3) and NPFF2R (NPFF) receptors. According to their preferential coupling to Gi/o proteins, the stimulation of NPFF1R and NPFF2R by agonists was monitored as a dose-dependent reduction in steady-state luminescence levels, reflecting the inhibition of forskolin-induced cAMP accumulation. Experiments were performed at 25° C. in the presence of 0.5 mM IBMX to prevent the degradation of cAMP by phosphodiesterases.

T3 sequence (Q9GZQ6 whole entry): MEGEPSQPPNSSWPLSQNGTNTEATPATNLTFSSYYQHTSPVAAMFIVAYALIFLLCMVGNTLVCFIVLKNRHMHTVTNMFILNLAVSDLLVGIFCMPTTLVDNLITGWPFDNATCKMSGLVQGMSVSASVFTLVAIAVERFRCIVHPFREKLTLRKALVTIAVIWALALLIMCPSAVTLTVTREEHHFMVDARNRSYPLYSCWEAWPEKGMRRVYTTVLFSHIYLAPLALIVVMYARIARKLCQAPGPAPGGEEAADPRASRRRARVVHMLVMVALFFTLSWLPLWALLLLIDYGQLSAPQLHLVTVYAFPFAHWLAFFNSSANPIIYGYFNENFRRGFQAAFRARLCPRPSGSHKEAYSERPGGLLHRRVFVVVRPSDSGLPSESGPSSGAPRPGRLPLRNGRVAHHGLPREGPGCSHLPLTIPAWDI
T2 sequence (Q9GZQ6 whole entry): as above
T1 sequence (Q9Y5X5 whole entry): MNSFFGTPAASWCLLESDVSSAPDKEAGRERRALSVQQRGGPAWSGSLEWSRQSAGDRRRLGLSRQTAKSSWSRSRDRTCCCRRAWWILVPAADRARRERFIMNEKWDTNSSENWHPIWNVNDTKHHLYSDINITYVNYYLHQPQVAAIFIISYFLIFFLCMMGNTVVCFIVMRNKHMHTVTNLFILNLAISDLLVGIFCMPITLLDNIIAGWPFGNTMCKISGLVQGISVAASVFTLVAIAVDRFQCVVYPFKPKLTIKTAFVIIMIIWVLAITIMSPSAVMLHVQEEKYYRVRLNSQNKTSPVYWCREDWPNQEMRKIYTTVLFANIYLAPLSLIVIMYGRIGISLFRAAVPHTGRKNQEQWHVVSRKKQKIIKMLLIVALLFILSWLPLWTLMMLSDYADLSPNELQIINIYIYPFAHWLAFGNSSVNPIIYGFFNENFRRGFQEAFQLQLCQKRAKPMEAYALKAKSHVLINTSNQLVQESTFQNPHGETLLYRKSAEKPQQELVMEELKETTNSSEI

Nc1ccc(-c2cccc(Cl)c2Cl)c(N)n1 [Compound 1j, 3-(2,3-dichlorophenyl)pyridine-2,6-diamine]
mechanical allodynia after CCI (allodynia index d11-d21), drug alone (C57BF6/N male mice [1]; morphine 3 mg/kg sc. alone or 1j 5 mg/kg p.o. alone, FIG. 4B): significantly attenuated the mechanical allodynia | mechanical allodynia after CCI (allodynia index d11-d21), pre-treatment before morphine (C57BF6/N male mice [1]; mouse, in vivo): significantly enhanced morphine analgesia effect on neuropathic pain | solubility in vehicle (Kolliphor EL vs Tween 80) [2]: better solubility in Kolliphor EL | Ki (hNPFFR2): 2000 nM | Ki (hNPFFR1): 20 ± 2 nM | fentanyl hyperalgesia (hyperalgesia index d1 to d4) (C57BF6/N male mice [3]; 5 mg/kg sc. 20 min before fentanyl 4×60 μg/kg sc., FIG. 6B): significant anti-hyperalgesic effect | development of hyperalgesia induced by fentanyl, dose effect (C57BF6/N male mice [3]; 0.2, 1 and 5 mg/kg, sc, 20 min before fentanyl, FIG. 1E, F): dose-dependently prevented | analgesic effect of fentanyl (AUC) (C57BF6/N male mice [3]; 1j 5 mg/kg p.o. in Kolliphor EL or vehicle before fentanyl 4×60 μg/kg s.c., FIG. 1C): 11.4±3 | ED50 (C57BF6/N male mice [3]; Mus musculus, sc, doses 0.2, 1 and 5 mg/kg, FIG. 1E, read-out: ED50, prevention of fentanyl-induced hyperalgesia): ~0.5 mg/kg | effect of compound alone on basal nociceptive response (C57BF6/N male mice [3]; mice, tail immersion 48° C., FIG. 1A): did not have any effect | Hyperalgesia index (HI) d1 to d4 (C57BF6/N male mice [3]; vehicle Kolliphor EL): −1.8±1.2 | Hyperalgesia index (HI) d1 to d4 (C57BF6/N male mice [3]; vehicle tween 80): 2.2±0.3 | mechanical allodynia after paw incision (allodynia index d1-d6), drug alone (C57BF6/N male mice [4]; morphine 2.5 mg/kg sc. alone or 1j 5 mg/kg po alone, FIG. 3B): slightly attenuated but not significantly the mechanical allodynia | mechanical allodynia after paw incision (allodynia index d1-d6), pre-treatment before morphine (C57BF6/N male mice [4]; mouse, in vivo): significantly enhanced morphine effect at preventing the mechanical allodynia | antagonist activity: effect on dose response curve of NPVF (RFRP-3), forskolin-stimulated cAMP (hNPFF1R; HEK-293 cells expressing hNPFF1R, FIG. 7): efficiently shifted to the right the dose response curve of NPVF | effect of compound tested alone (agonist activity) (hNPFF1R; cells expressing hNPFF1R, forskolin 0.5 μM): had no effect

— patent publication US20210221784A1, “COMPOUNDS AND COMPOSITIONS FOR THE TREATMENT OF PAIN” (Université de Strasbourg, priority 2018, published 2021)
